Laboratory results reported in patent publication US11530216B2, “Deuterated colony stimulating factor-1 receptor (CSF-1R) inhibitors” (Genzyme Corporation, priority 2020, dated 2022).
Where two headings read alike, the source gives them in different places.

Experiments:
[1] = system: MCP-1 production in primary murine microglial cells; experiment: MCP-1 ELISA, primary mouse microglia after CSF-1 stimulation; type: cell-based; settings: primary murine microglia, 100 ng/mL CSF-1 24 hours
Method: Primary mouse microglia were suspended at a concentration of 5×10^5 cells/mL and 100 μL of this cell suspension was added to the inner 60 wells of three 96-well plates. Microglia cells were allowed to rest overnight at 37° C., 5% CO2. […] Cells were then stimulated with 100 ng/mL recombinant mouse CSF-1 for 24 hours. After stimulation, the culture supernatant was removed from each well and aliquoted into two different 96-well plates for subsequent ELISA assays. Plates were fixed with 4% PFA for future immunocytochemistry analysis.

primary murine microglia = experiment: Immunostaining of primary microglia (Iba1+ area, DAPI+ nuclei) after CSF-1 stimulation; type: cell-based, mouse; settings: for IC50: primary murine microglia, CSF-1 stimulation
Method: Primary mouse microglia were suspended at a concentration of 5×10^5 cells/mL and 100 μL of this cell suspension was added to the inner 60 wells of three 96-well plates. Microglia cells were allowed to rest overnight at 37° C., 5% CO2. […] Cells were then stimulated with 100 ng/mL recombinant mouse CSF-1 for 24 hours. After stimulation, the culture supernatant was removed from each well and aliquoted into two different 96-well plates for subsequent ELISA assays. Plates were fixed with 4% PFA for future immunocytochemistry analysis. Following the stimulation, cells were fixed with 4% PFA for 20 minutes at room temperature. Cells were then rinsed in PBS, washed 3×5 minutes in 0.2% PBT (0.2% Triton X-100 in PBS) and blocked with 10% donkey serum/0.2% PBT for 1 hour at room temperature. […] After staining, plates were imaged on the IN Cell Analyzer 2200 with 9 fields of view acquired per well. […] A one-way ANOVA was used to determine the statistical significance of differences between samples. […] Following a microglial stimulation, immunocytochemistry was completed with Iba1, Ki67, and DAPI to determine microglial morphology, proliferative state, and number. InCell imaging microsope and analysis software was used to quantify Iba1^+ area, and the number of DAPI^+ nuclei within the cultures.

[2] = Human hepatocyte intrinsic clearance; type: in vitro ADME; settings: for hepatocyte CLint at 1 μM / CLint scaled at 1 μM: human, hepatocytes
Method: (§1) Incubations were performed in 0.5 million hepatocytes cells/mL at 1 μM concentration of test compound in duplicate with rat, human, dog, monkey, or mouse hepatocytes, and the concentration-time course of test compound depletion was determined after withdrawing samples from the incubation at assay time points followed by liquid chromatography with tandem mass spectrometry analysis. An organic solvent was used to terminate incubations.
(§2) These available known AO substrates along with the test compounds were analyzed using three in vitro systems (pooled human liver cytosol, liver S-9 fractions and human hepatocytes isolated from livers perfused with HTK media). Scaled unbound intrinsic clearances were calculated for the test compounds/new chemical entities and were compared to the in vivo unbound intrinsic clearances of the known AO substrates.

[3] = Human liver cytosol intrinsic clearance; type: in vitro ADME; settings: for microsomal CLint at 1 μM / CLint scaled at 1 μM: human, cytosol
Method: as §1, with “1 mg/mL human liver cytosol with high aldehyde oxidase (AO)/xanthine oxidase (XO) activity or 2.5 mg/mL human liver S-9 fraction with high AO/XO activity” for “0.5 million hepatocytes cells/mL”, “duplicate,” for “duplicate with rat, human, dog, monkey, or mouse hepatocytes,”
as §2

[4] = Human liver S-9 intrinsic clearance; type: in vitro ADME; settings: for microsomal CLint at 1 μM / CLint scaled at 1 μM: human; for CLint scaled at 1 μM: s9; for Human Liver S-9 Intrinsic Clearance _1 / Human Liver S-9 Intrinsic Clearance _2: 2.5 mg/mL S-9, 1 μM
Method: as §1, with “1 mg/mL human liver cytosol with high aldehyde oxidase (AO)/xanthine oxidase (XO) activity or 2.5 mg/mL human liver S-9 fraction with high AO/XO activity” for “0.5 million hepatocytes cells/mL”, “duplicate,” for “duplicate with rat, human, dog, monkey, or mouse hepatocytes,”
as §2

[5] = known AO substrates, human, literature; cited from earlier work
[6] = raw data, AO calibration set, read-out: Human Hepatocytes Intrinsic Clearance
[7] = scaled data, read-out: Human Hepatocytes in vitro scaled Intrinsic Clearance
[8] = 1 mg/mL cytosol, 1 μM, replicate 1, read-out: Human Liver Cytosol Intrinsic Clearance _1
[9] = 1 mg/mL cytosol, 1 μM, replicate 2, read-out: Human Liver Cytosol Intrinsic Clearance _2
[10] = scaled data, read-out: Human Liver Cytosol in vitro scaled Intrinsic Clearance
[11] = s9, 2.5 mg/mL S-9, 1 μM, replicate 1, read-out: Human Liver S-9 Intrinsic Clearance _1
[12] = s9, 2.5 mg/mL S-9, 1 μM, replicate 2, read-out: Human Liver S-9 Intrinsic Clearance _2
[13] = scaled data, read-out: Human Liver S-9 in vitro scaled Intrinsic Clearance
[14] = Human Liver Cytosol Intrinsic Clearance _1
[15] = Human Liver Cytosol Intrinsic Clearance _2
[16] = 1 mg/mL cytosol, 1 μM, replicate 1
[17] = 1 mg/mL cytosol, 1 μM, replicate 2

Compound | Estimated Free in vivo Intrinsic Clearance (Ref) [5] | CLint scaled at 1 μM [2] [mL/min/kg] | hepatocyte CLint at 1 μM [2] [µL/min/1e6 cells] | CLint scaled at 1 μM [3] [mL/min/kg] | microsomal CLint at 1 μM [3, 14] [µL/min/mg] | microsomal CLint at 1 μM [3, 15] [µL/min/mg] | Human Hepatocytes Intrinsic Clearance ([2]; raw data, AO calibration set) [μL/min/10^6 cells] | Human Hepatocytes in vitro scaled Intrinsic Clearance ([2]; scaled data) [mL/min/kg] | Human Liver Cytosol Intrinsic Clearance _1 [3, 16] [μL/min/mg protein] | Human Liver Cytosol Intrinsic Clearance _2 [3, 17] [μL/min/mg protein] | Human Liver Cytosol in vitro scaled Intrinsic Clearance ([3]; scaled data) [mL/min/kg] | Human Liver S-9 Intrinsic Clearance _1 ([4]; replicate 1) [μL/min/mg protein] | Human Liver S-9 Intrinsic Clearance _2 ([4]; replicate 2) [μL/min/mg protein] | Human Liver S-9 in vitro scaled Intrinsic Clearance ([4]; scaled data) [mL/min/kg] | other results
FC(F)(F)c1ccc(CNc2ccc(Cc3c[nH]c4ncc(Cl)cc34)cn2)cn1 [PLX3397, pexidartinib] |  |  |  |  |  |  |  |  |  |  |  |  |  |  | IC50 ([1]; read-out: IC50, MCP-1 production): 17.4 nM; MCP-1 production ([1]; 3.125-400 nM): significantly reduced MCP-1 production in a concentration dependent manner; Iba1+ area (primary murine microglia; CSF-1 stimulation increases Iba1+ area): significantly abrogated this effect in a concentration dependent manner; number of cells (DAPI+ cells) (primary murine microglia; CSF-1 stimulation increases cell number): reduce this number in a concentration dependent manner; IC50 (primary murine microglia; read-out: IC50 for DAPI (DAPI+ cell number)): 68.2 nM; IC50 (primary murine microglia; read-out: IC50 for Iba1 (Iba1+ area)): 50.4 nM
OCCn1cc(-c2cnc3nnn(Cc4ccc5ncccc5c4)c3n2)cn1 [PF-4217903] | 46 |  |  |  |  |  |  |  |  |  |  |  |  |  | hepatocyte CLint at 1 μM [2, 6]: 4.08 µL/min/1e6 cells; CLint scaled at 1 μM [2, 7]: 10.4 mL/min/kg; microsomal CLint at 1 μM [3, 8]: < 0.7 µL/min/mg; microsomal CLint at 1 μM [3, 9]: < 0.7 µL/min/mg; CLint scaled at 1 μM [3, 10]: < 1.5 mL/min/kg; microsomal CLint at 1 μM [4, 11]: < 1.1 µL/min/mg; microsomal CLint at 1 μM [4, 12]: < 1.1 µL/min/mg; CLint scaled at 1 μM [4, 13]: < 3.4 mL/min/kg
[2H]c1nc2cccnc2n1Cc1cc(OC)c2c(c1)O[C@H](C)[C@@H](c1ccc(OC)nc1)O2 [Compound 5, 3-(((2R,3R)-8-methoxy-2-(6-methoxypyridin-3-yl)-3-methyl-2,3-dihydrobenzo[b][1,4]dioxin-6-yl)methyl)-3H-imidazo[4,5-b]pyridine-2-d] |  | 19.7 | 7.74 | 2.2 | 0.7 | 1.4 |  |  |  |  |  |  |  |  | CLint scaled at 1 μM [4]: 3.6 mL/min/kg; microsomal CLint at 1 μM ([4]; s9, Human Liver S-9 Intrinsic Clearance _1): < 1.1 µL/min/mg; microsomal CLint at 1 μM ([4]; s9, Human Liver S-9 Intrinsic Clearance _2): < 1.1 µL/min/mg
CC[C@H]1OC(=O)[C@H](C)C(=O)[C@H](C)[C@@H](O[C@@H]2O[C@H](C)C[C@H](N(C)C)[C@H]2O)[C@](C)(OC)C[C@@H](C)C(=O)[C@H](C)[C@H]2N(C3CN([C@H](C)c4ccnc5ncccc45)C3)C(=O)O[C@]12C [PF-945863] | 170 |  |  |  |  |  | 10.7 | 27.2 | 8.2 | 6.9 | 15.4 | 6.78 | 6.22 | 20.1 | 
Nc1nc(OCc2ccccc2)c2nc[nH]c2n1 [O6-benzylguanine] | 360 |  |  |  |  |  | 13.6 | 34.6 | 5.6 | 4.9 | 10.7 | 6.66 | 5.97 | 19.5 | 
CN(C)CCNC(=O)c1cccc2cc3ccccc3nc12 [DACA] | 3600 |  |  |  |  |  | 49.1 | 125 | 46.2 | 46.8 | 96.5 | 19.0 | 17.7 | 56.5 | 
N=C(N)NC(=O)c1cnn(-c2cccc3ncccc23)c1C1CC1 [zoniporide] | 180 | 33.8 | 13.3 | 12.4 |  |  |  |  |  |  |  |  |  |  | CLint scaled at 1 μM [4]: 18.6 mL/min/kg
[2H]c1ccc2nc([2H])n(Cc3cc(OC)c4c(c3)O[C@@H](C)[C@H](c3ccc(OC)nc3)O4)c2n1 (racemic) [Compound 2, (+/−)-3-(((trans)-8-methoxy-2-(6-methoxypyridin-3-yl)-3-methyl-2,3-dihydrobenzo[b][1,4]dioxin-6-yl)methyl)-3H-imidazo[4,5-b]pyridine-2,5-d2] |  | 16.2 | 6.36 | 4.3 | 1.5 | 1.7 |  |  |  |  |  |  |  |  | 
CCN(C(C)=O)c1cccc(-c2ccnc3c(C#N)cnn23)c1 [zaleplon] | 65 |  |  |  |  |  |  |  |  |  |  |  |  |  | hepatocyte CLint at 1 μM [2, 6]: 7.53 µL/min/1e6 cells; CLint scaled at 1 μM [2, 7]: 19.2 mL/min/kg; microsomal CLint at 1 μM [3, 8]: 3.1 µL/min/mg; microsomal CLint at 1 μM [3, 9]: 3.4 µL/min/mg; CLint scaled at 1 μM [3, 10]: 6 mL/min/kg; microsomal CLint at 1 μM [4, 11]: 2.11 µL/min/mg; microsomal CLint at 1 μM [4, 12]: 3.32 µL/min/mg; CLint scaled at 1 μM [4, 13]: 7.1 mL/min/kg
[2H]c1ccc2ncn(Cc3cc(OC)c4c(c3)O[C@@H](C)[C@H](c3ccc(OC)nc3)O4)c2n1 (racemic) [Compound 1, (+/−)-3-(((trans)-8-methoxy-2-(6-methoxypyridin-3-yl)-3-methyl-2,3-dihydrobenzo[b][1,4]dioxin-6-yl)methyl)-3H-imidazo[4,5-b]pyridine-5-d] |  | 26.2 | 10.3 | 6.9 | 3.4 | 3.3 |  |  |  |  |  |  |  |  | 
CN(Cc1cnc2nc(N)nc(N)c2n1)c1ccc(C(=O)N[C@@H](CCC(=O)O)C(=O)O)cc1 [methotrexate] | 0.44 |  |  |  |  |  | <2.7 | <6.9 | <0.7 | <0.7 | <1.5 | <1.1 | <1.1 | <3.4 | 
CCNC(=O)OC1CCN(c2nncc3cc(OC)c(OC)cc23)CC1 [carbazeran] | 13000 |  |  |  |  |  |  |  |  |  |  |  |  |  | 
[2H]c1nc2cccnc2n1C([2H])([2H])c1cc(OC)c2c(c1)O[C@@H](C)[C@H](c1ccc(OC)nc1)O2 (racemic) [Compound 4, (+/−)-3-(((trans)-8-methoxy-2-(6-methoxypyridin-3-yl)-3-methyl-2,3-dihydrobenzo[b][1,4]dioxin-6-yl)methyl-d2)-3H-imidazo[4,5-b]pyridine-2-d] |  | 19 | 7.45 | 3.4 | 1.2 | 2.1 |  |  |  |  |  |  |  |  | 
